Data: patent publication US11273153B2, “MAPK inhibitors” (EverBrilliant Pharma Pty Ltd, priority 2014, dated 2022)
Read-outs that look alike come from different tables or passages of the source.

Key:
[1] = biological target: active phosphorylated p38α MAPK (Homo sapiens (Human), UniProt Q16539); assay: Fluorescence polarisation (FP) binding assay, active enzyme
Procedure: (§1) A number of compounds were also assessed for the inhibition of p38α MAPK activity (www.kinase-screen.mrc.ac.uk) in which a radioactive (^33P-labelled ATP) filter binding assay was used to directly measure phosphate incorporation. Table 1 summarises the binding affinities of the synthesised compounds to both forms of the enzyme as well as the inhibitory activities against p38α MAPK. By way of enabling a comparison with a non-thiophene compound the biological testing was also carried out for known inhibitor RWJ67657, shown in table 1.
(§2) FP signals were measured with a PHERAstar microplate reader (BMG Labtech) using black, low-binding half-area 96 well plates (Corning). Each binding data point was carried out in duplicate or triplicate. Data were recorded in millipolarisation (mP) units and measured at an excitation wavelength of 485 nm and an emission wavelength of 520 nm. Tris(hydroxymethyl)aminomethane (Tris) assay buffer was used in all binding experiments and consisted of 10 mM Tris, […] potassium chloride, and 3.5 mM 3-((3-cholamidopropyl)dimethylammonium)-1-propanesulfonate (Chaps) at pH 8.0.
(§3) Test compounds were prepared from dimethylsulfoxide stocks (10 mM). […] Plates were incubated at room temperature for 1 hour and FP signals were recorded. For binding experiments to active p38α MAPK, the FP signals were recorded after 2 hours incubation at room temperature. Data is represented as mean±SEM from two to three independent experiments.

[2] = biological target: inactive non-phosphorylated p38α MAPK (Homo sapiens (Human), UniProt Q16539); assay: Fluorescence polarisation (FP) binding assay, inactive enzyme
Procedure: as §1, §2, §3

[3] = Table 5, read-out: Ki ± SEM (μM) to active p38α MAPK
[4] = Table 6, read-out: Ki ± SEM (μM) to active p38α
[5] = Table 5, read-out: Ki ± SEM (μM) to inactive p38α MAPK
[6] = Table 6, read-out: Ki ± SEM (μM) to inactive p38α

active phosphorylated p38α MAPK, sequence (Q16539 whole entry): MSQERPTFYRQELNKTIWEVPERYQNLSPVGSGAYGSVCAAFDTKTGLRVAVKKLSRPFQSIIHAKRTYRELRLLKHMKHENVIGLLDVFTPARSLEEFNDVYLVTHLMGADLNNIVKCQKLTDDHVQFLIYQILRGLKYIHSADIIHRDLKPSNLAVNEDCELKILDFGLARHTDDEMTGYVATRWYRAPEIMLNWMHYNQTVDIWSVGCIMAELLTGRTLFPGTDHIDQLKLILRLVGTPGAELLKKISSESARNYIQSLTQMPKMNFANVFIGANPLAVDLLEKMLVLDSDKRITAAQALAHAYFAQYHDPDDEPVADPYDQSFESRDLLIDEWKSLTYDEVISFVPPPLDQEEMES
inactive non-phosphorylated p38α MAPK, sequence (Q16539 whole entry): as above

| Ki [1, 4] [µM] | Ki [2, 6] [µM] | Structure (SMILES) | other results |
| --- | --- | --- | --- |
| 2.3 | 1.9 ± 0.4 | Fc1ccc(-c2sc(I)cc2-c2ccncc2)cc1 [Compound 5.1, 4-(2-(4-Fluorophenyl)-5-iodothiophen-3-yl)pyridine] | Ki [1, 3]: 2.3 µM; Ki [2, 5]: 1.9 ± 0.4 µM |
| 0.8 ± 0.04 | 1.7 ± 0.2 | OCCCC#Cc1cc(-c2ccncc2)c(-c2ccc(F)cc2)s1 [Compound 5.3, 5-(5-(4-Fluorophenyl)-4-(pyridin-4-yl)thiophen-2-yl)pent-4-yn-1-ol] | Ki [1, 3]: 0.8 ± 0.04 µM; Ki [2, 5]: 1.7 ± 0.2 µM |
| – | > 10 | NCC#Cc1cc(-c2ccncc2)c(-c2ccc(F)cc2)s1 [Compound 5.6, 3-(5-(4-Fluorophenyl)-4-(pyridin-4-yl)thiophen-2-yl)prop-2-yn-1-amine] | Ki [2, 5]: > 10 µM |
| 1.7 | > 10 | Fc1ccc(-c2sc(-c3ccco3)cc2-c2ccncc2)cc1 [Compound 5.18, 4-(2-(4-Fluorophenyl)-5-(furan-2-yl)thiophen-3-yl)pyridine] | Ki [1, 3]: 1.7 µM; Ki [2, 5]: > 10 µM |
| 1.4 | 17 ± 2 | O=C(O)c1cc(-c2ccncc2)c(-c2ccc(F)cc2)s1 [Compound 5.12, 5-(4-Fluorophenyl)-4-(pyridin-4-yl)thiophene-2-carboxylic acid] | Ki [1, 3]: 1.4 µM; Ki [2, 5]: 17 ± 2 µM |
| 0.9 ± 0.1 | 6.3 ± 0.4 | O=C(c1cc(-c2ccncc2)c(-c2ccc(F)cc2)s1)N1CCNCC1 [Compound 5.14, (5-(4-Fluorophenyl)-4-(pyridin-4-yl)thiophen-2-yl) (piperazin-1-yl)methanone] | Ki [1, 3]: 0.9 ± 0.1 µM; Ki [2, 5]: 6.3 ± 0.4 µM |
| 2.5 | 2.2 ± 0.2 | Fc1ccc(-c2sc(C#CCCN3CCOCC3)cc2-c2ccncc2)cc1 [Compound 5.8, 4-(4-(5-(4-Fluorophenyl)-4-(pyridin-4-yl)thiophen-2-yl)but-3-yn-1-yl)morpholine] | Ki [1, 3]: 2.5 µM; Ki ([1]; read-out: Ki to active p38α MAPK): 2.5 µM; Ki [2, 5]: 2.2 ± 0.2 µM |
| 9.4 | > 10 | Fc1ccc(-c2scc(C#CCc3ccccc3)c2-c2ccncc2)cc1 [Compound 4.19, 4-(2-(4-Fluorophenyl)-4-(3-phenylprop-1-yn-1-yl)thiophen-3-yl)pyridine] | Ki ([1]; Table 1, read-out: Ki (μM, mean ± SEM) active p38α): 9.44 µM; binding to p38α MAPK, in words [2]: complete loss of binding; Ki ([2]; Table 1, read-out: Ki (μM, mean ± SEM) inactive p38α): > 10 µM |
| 2.2 | 6 ± 1 | CCOC(=O)c1cc(-c2ccncc2)c(-c2ccc(F)cc2)s1 [Compound 5.11, Ethyl 5-(4-fluorophenyl)-4-(pyridin-4-yl)thiophene-2-carboxylate] | Ki [1, 3]: 2.2 µM; Ki [2, 5]: 6 ± 1 µM |

Second part, the compound before the results:

| Structure (SMILES) | Ki [1, 4] [µM] | Ki [2, 6] [µM] | other results |
| --- | --- | --- | --- |
| O=C(NCCO)c1ccc(-c2c(C#CCCO)sc(-c3ccc(F)cc3)c2-c2ccncc2)cc1 [Compound 3.38, 4-(5-(4-Fluorophenyl)-2-(4-hydroxybut-1-yn-1-yl)-4-(pyridin-4-yl)thiophen-3-yl)-N-(2-hydroxyethyl)benzamide] | 1.7 ± 0.2 | > 10 | – |
| OCCC#Cc1sc(-c2ccc(F)cc2)c(-c2ccncc2)c1-c1ccc(F)cc1 [Compound 3.50, 4-(3,5-bis(4-Fluorophenyl)-4-(pyridin-4-yl)thiophen-2-yl)but-3-yn-1-ol] | 0.9 ± 0.4 | > 10 | – |
| Cc1ccc(S(=O)(=O)Nc2cccc(-c3c(C#CCCO)sc(-c4ccc(F)cc4)c3-c3ccncc3)c2)cc1 [Compound 3.45, N-(3-(5-(4-fluorophenyl)-2-(4-hydroxybut-1-yn-1-yl)-4-(pyridin-4-yl)thiophen-3-yl)phenyl)-4-methylbenzenesulfonamide] | > 10 | > 10 | – |
| CC(=O)Nc1cccc(-c2c(C#CCCO)sc(-c3ccc(F)cc3)c2-c2ccncc2)c1 [Compound 3.41, N-(3-(5-(4-fluorophenyl)-2-(4-hydroxybut-1-yn-1-yl)-4-(pyridin-4-yl)thiophen-3-yl)phenyl)acetamide] | 2 ± 0.1 | 2.6 ± 0.6 | – |
| OCCC#Cc1sc(-c2ccc(F)cc2)c(-c2ccncc2)c1-c1ccc(O)cc1 [Compound 3.54, 4-(5-(4-Fluorophenyl)-2-(4-hydroxybut-1-yn-1-yl)-4-(pyridin-4-yl)thiophen-3-yl)phenol] | 3.4 | > 10 | – |
| N#Cc1cccc(-c2c(C#CCCO)sc(-c3ccc(F)cc3)c2-c2ccncc2)c1 [Compound 3.47, 3-(5-(4-Fluorophenyl)-2-(4-hydroxybut-1-yn-1-yl)-4-(pyridin-4-yl)thiophen-3-yl)benzonitrile] | 1.8 ± 0.4 | > 10 | – |
| OCCC#Cc1sc(-c2ccc(F)cc2)c(-c2ccncc2)c1-c1ccc(Cl)cc1 [Compound 3.51, 4-(3-(4-Chlorophenyl)-5-(4-fluorophenyl)-4-(pyridin-4-yl)thiophen-2-yl)but-3-yn-1-ol] | > 10 | > 10 | – |
| COC(=O)c1ccccc1-c1c(C#CCCO)sc(-c2ccc(F)cc2)c1-c1ccncc1 [Compound 3.28, Methyl 2-(5-(4-fluorophenyl)-2-(4-hydroxybut-1-yn-1-yl)-4-(pyridin-4-yl)thiophen-3-yl)benzoate] | 8.7 | > 10 | – |
| CC(=O)c1ccc(-c2c(C#CCCO)sc(-c3ccc(F)cc3)c2-c2ccncc2)cc1 [Compound 3.53, 1-(4-(5-(4-Fluorophenyl)-2-(4-hydroxybut-1-yn-1-yl)-4-(pyridin-4-yl)thiophen-3-yl)phenyl)ethanone] | 2.2 ± 0.3 | > 10 | – |
| COC(=O)c1cccc(-c2c(C#CCCO)sc(-c3ccc(F)cc3)c2-c2ccncc2)c1 [Compound 3.29, Methyl 3-(5-(4-fluorophenyl)-2-(4-hydroxybut-1-yn-1-yl)-4-(pyridin-4-yl)thiophen-3-yl)benzoate] | 3 | > 10 | – |
| O=C(O)c1ccc(-c2c(C#CCCO)sc(-c3ccc(F)cc3)c2-c2ccncc2)cc1 [Compound 3.32, 4-(5-(4-Fluorophenyl)-2-(4-hydroxybut-1-yn-1-yl)-4-(pyridin-4-yl)thiophen-3-yl)benzoic acid] | > 10 | > 10 | – |
| Fc1ccc(-c2sc(I)c(I)c2-c2ccncc2)cc1 [Compound 3.3, 4-(2-(4-Fluorophenyl)-4,5-diiodothiophen-3-yl)pyridine] | > 10 | > 10 | – |
| OCCC#Cc1sc(-c2ccc(F)cc2)c(-c2ccncc2)c1I [Compound 3.55, 4-(5-(4-Fluorophenyl)-3-iodo-4-(pyridin-4-yl)thiophen-2-yl)but-3-yn-1-ol] | > 10 | > 10 | – |
| O=C(NCCO)c1cccc(-c2c(C#CCCO)sc(-c3ccc(F)cc3)c2-c2ccncc2)c1 [Compound 3.37, 3-(5-(4-Fluorophenyl)-2-(4-hydroxybut-1-yn-1-yl)-4-(pyridin-4-yl)thiophen-3-yl)-N-(2-hydroxyethyl)benzamide] | 2 ± 1 | 1.9 ± 0.2 | – |
| Fc1ccc(-c2sccc2-c2ccncc2)cc1 [Compound 3.2, 4-(2-(4-Fluorophenyl)thiophen-3-yl)pyridine] | 0.6 ± 0.1 | 5 ± 0.4 | Ki [1, 3]: 0.6 ± 0.1 µM; Ki [2, 5]: 5 ± 0.4 µM |
| OCCC#Cc1sc(-c2ccc(F)cc2)c(-c2ccncc2)c1-c1cccc(CO)c1 [Compound 3.33, 4-(5-(4-Fluorophenyl)-3-(3-(hydroxymethyl)phenyl)-4-(pyridin-4-yl)thiophen-2-yl)but-3-yn-1-ol] | 1.3 ± 0.2 | > 10 | – |
| O=C(Nc1ccc(-c2c(C#CCCO)sc(-c3ccc(F)cc3)c2-c2ccncc2)cc1)c1ccccc1 [Compound 3.44, N-(4-(5-(4-fluorophenyl)-2-(4-hydroxybut-1-yn-1-yl)-4-(pyridin-4-yl)thiophen-3-yl)phenyl)benzamide] | > 10 | > 10 | – |
| O=C(O)c1cccc(-c2c(C#CCCO)sc(-c3ccc(F)cc3)c2-c2ccncc2)c1 [Compound 3.31, 3-(5-(4-Fluorophenyl)-2-(4-hydroxybut-1-yn-1-yl)-4-(pyridin-4-yl)thiophen-3-yl)benzoic acid] | 7.1 | > 10 | – |
| O=C(Nc1cccc(-c2c(C#CCCO)sc(-c3ccc(F)cc3)c2-c2ccncc2)c1)c1ccccc1 [Compound 3.43, N-(3-(5-(4-fluorophenyl)-2-(4-hydroxybut-1-yn-1-yl)-4-(pyridin-4-yl)thiophen-3-yl)phenyl)benzamide] | > 10 | > 10 | – |
| OCCC#Cc1sc(-c2ccc(F)cc2)c(-c2ccncc2)c1-c1ccc(CO)cc1 [Compound 3.34, 4-(5-(4-Fluorophenyl)-3-(4-(hydroxymethyl)phenyl)-4-(pyridin-4-yl)thiophen-2-yl)but-3-yn-1-ol] | 3.5 | > 10 | – |
| CN(C)c1ccc(-c2c(C#CCCO)sc(-c3ccc(F)cc3)c2-c2ccncc2)cc1 [Compound 3.49, 4-(3-(4-(Dimethylamino)phenyl)-5-(4-fluorophenyl)-4-(pyridin-4-yl)thiophen-2-yl)but-3-yn-1-ol] | > 10 | > 10 | – |
| NC(=O)c1cccc(-c2c(C#CCCO)sc(-c3ccc(F)cc3)c2-c2ccncc2)c1 [Compound 3.35, 3-(5-(4-Fluorophenyl)-2-(4-hydroxybut-1-yn-1-yl)-4-(pyridin-4-yl)thiophen-3-yl)benzamide] | 2.2 ± 0.3 | > 10 | – |
